{"source": "patent US20070264354A1", "about": "“TREATMENT OF A WOUND WITH A VASODILATOR” (priority 2006, published 2007)", "key": {"[1]": {"system": "capsaicin-sensitive cutaneous nerves (small sensory fibers)", "experiment": "Acute topical capsaicin-induced cutaneous blood flow by laser Doppler flowmetry", "type": "in vivo, human"}, "[2]": {"system": "capsaicin-sensitive cutaneous nerves (small sensory fibers)", "experiment": "Heat-step heat pain threshold after acute topical capsaicin (primary hyperalgesia)", "type": "in vivo, human", "experimental": "In the heat-step procedure, basal blood flow was monitored at resting skin temperature and later at 32° C. The temperature was raised in increments of 2° C. per minute until a maximum temperature value of 48° C. was reached. Sensory responses (specifically, heat pain threshold, HPT) and peak net flows at each increment were documented. A second heat-step test followed an acute application of topical capsaicin to the skin to measure sensitization by HPT, i.e., primary hyperalgesia. Two normal and obese subjects complained that the pungency from the capsaicin was extreme and, as a consequence, the heat-step test for hyperalgesia was not conducted."}, "[3]": {"system": "capsaicin-sensitive cutaneous nerves (small sensory fibers)", "experiment": "Capsaicin-induced pungency (quality of sensation)", "type": "in vivo, human", "experimental": "Topical Capsaicin: Capsaicin, 8-methyl-N-vanillyl-6-nonenamide, is a vanilloid neurotoxin that targets somatic small primary afferent neurons. Capsaicin (1% in 75% ethanol, 25% saline) was applied topically for 45 minutes through a central chamber (300 μl capacity, 1 cm diameter) in a clear circular plastic perspex adhered to the skin. Throughout the application, perceptual responses and peak flow values were obtained. The vehicle was applied at different skin sites to 6 normal subjects."}, "[4]": {"system": "capsaicin-sensitive cutaneous nerves (small sensory fibers)", "experiment": "Capsaicin-induced desensitization (Cap-D)", "type": "in vivo, human", "experimental": "Capsaicin-Induced Desensitization: Eight (8) normal subjects were recruited to ascertain the degree of capsaicin sensitivity of each of the tests described above. Each subject applied topical capsaicin to one forearm and thigh, and the vehicle to the opposing limb in 45 minute applications, 3-4 times daily for 5 days."}, "[5]": {"system": "NOS", "conditions": "animals (Isenberg et al, 2005); cited from earlier work"}, "[6]": {"system": "diabetic wounds", "conditions": "cited from earlier work"}, "[7]": {"system": "wound areas", "conditions": "50 ul of 110 ug/ml solution topically (Li et al, 1980); cited from earlier work"}, "[8]": {"system": "leukocyte chemotaxis", "conditions": "subdermal air sacs, mice (Lawman et al, 1985); cited from earlier work"}, "[9]": {"system": "venous stasis ulcers", "conditions": "CGRP and VIP given together by iontophoresis (Gherardini et al, 1998b); cited from earlier work"}}, "note": "Where no end group is shown, it is not given here."}
{"compound": "COc1cc(CNC(=O)CCCCC=CC(C)C)ccc1O", "note": "[Capsaicin, 8-methyl-N-vanillyl-6-nonenamide]", "values": [{"measurement": "Capsaicin Latency, Indirect, Normal, Mean", "setting": "[1]; latency to flare, indirect site, normal subjects", "value": 12, "unit": "min"}, {"measurement": "Capsaicin Latency, Indirect, Obese, Mean", "setting": "[1]; latency to flare, indirect site, obese subjects", "value": 26, "unit": "min"}, {"measurement": "Capsaicin Latency, Direct, Normal, Mean", "setting": "[1]; latency to vasodilatory response, direct site, normal subjects", "value": 11, "unit": "min"}, {"measurement": "Capsaicin Latency, Direct, Obese, Mean", "setting": "[1]; latency to vasodilatory response, direct site, obese subjects", "value": 21, "unit": "min"}, {"measurement": "Capsaicin Flux, Direct, Normal, Mean", "setting": "[1]; net peak flux, direct flow site, 1% topical capsaicin 45 min, forearm, normal subjects", "value": 299, "unit": "AU"}, {"measurement": "Capsaicin Flux, Direct, Obese, Mean", "setting": "[1]; net peak flux, direct flow site, 1% topical capsaicin 45 min, forearm, obese subjects", "value": 159, "unit": "AU"}, {"measurement": "Capsaicin Flux, Indirect, Normal, Mean", "setting": "[1]; net peak flux, indirect flow (flare) site, 1% topical capsaicin 45 min, normal subjects", "value": 257, "unit": "AU"}, {"measurement": "Capsaicin Flux, Indirect, Obese, Mean", "setting": "[1]; net peak flux, indirect flow (flare) site, 1% topical capsaicin 45 min, obese subjects", "value": 128, "unit": "AU"}, {"measurement": "Heat Step HPT Post-Cap - Hyperalgesia, Normal, Mean", "setting": "[2]; after acute topical capsaicin, normal subjects", "value": 37.1, "unit": "°C"}, {"measurement": "Heat Step HPT Post-Cap - Hyperalgesia, Obese, Mean", "setting": "[2]; after acute topical capsaicin, obese subjects", "value": 39.8, "unit": "°C"}, {"measurement": "fall in the HPT, average", "setting": "[2]; both normal and obese groups, p<0.001", "value": "~7", "unit": "C"}, {"measurement": "share of population with pronounced hyperalgesic response", "setting": "[2]; normal population, n=11/13", "value": "~90", "unit": "%"}, {"measurement": "share of population with pronounced hyperalgesic response", "setting": "[2]; obese population, n=43/53", "value": "Approximately 80%"}, {"measurement": "capsaicin-induced pungency level", "setting": "[3]; normal subjects", "value": 90, "unit": "%"}, {"measurement": "share perceiving burn/pain", "setting": "[3]; normal subjects", "value": "approximately 80%"}, {"measurement": "share reporting a stinging/prickly sensation", "setting": "[3]; normal subjects", "value": 20, "unit": "%"}, {"measurement": "capsaicin-induced pungency level", "setting": "[3]; obese subjects", "value": 45, "unit": "%"}, {"measurement": "heat-induced flux in heat-ramp test after Cap-D", "setting": "[4]; direct and indirect flow, versus vehicle", "value": "decreased significantly"}, {"measurement": "dose (mC)-response (flux) curve to transcutaneous electrical stimulation after Cap-D", "setting": "[4]; indirect site", "value": "abolished neurogenic flare"}, {"measurement": "blood flow on acute capsaicin challenge after Cap-D", "setting": "[4]; normal subjects n=8", "value": "virtually no increased blood flow"}, {"measurement": "pungency on acute capsaicin challenge after Cap-D", "setting": "[4]; normal subjects n=8", "value": "no pungency"}, {"measurement": "HPT after capsaicin-induced desensitization", "setting": "[4]; topical capsaicin 3-4 times daily for 5 days, normal subjects n=8, maximum temperature utilized", "value": "> 48", "unit": "°C"}]}
{"compound": "COC(=O)[C@@H](N)CCCNC(=N)N[N+](=O)[O-]", "note": "[L-NAME]", "values": [{"measurement": "vessel diameter and blood flow in skin flaps", "setting": "[5]", "value": "marked decreases in vessel diameter and blood flow"}]}
{"compound": "N=C(N)NCCC[C@H](N)C(=O)O", "note": "[LA, L-Arginine]", "values": [{"measurement": "wound healing", "setting": "[6]; diabetic rats (Shi et al)", "value": "improve wound healing"}, {"measurement": "wound NOx levels", "setting": "[6]; diabetic wounds (Shi et al)", "value": "increased NOx levels to normal values"}]}
{"compound": "NGF: Nerve growth factor, instrumental in the synthesis of sensory neuropeptides in the DRG", "values": [{"measurement": "wound healing", "setting": "[7]", "value": "markedly accelerated healing"}, {"measurement": "leukocyte chemotaxis", "setting": "[8]", "value": "significantly increased leukocyte chemotaxis"}]}
{"compound": "VIP: Vasoactive Intestinal Polypeptide, peptide released by C-fibers (HSDAVFTDNYTRLRKQMAVKKYLNSILN; ends and bridges not checked; UniProt P01282 125-152, looked up)", "values": [{"measurement": "healing of venous stasis ulcers", "setting": "[9]", "value": "improved healing of venous stasis ulcers"}]}
